Results published in patent US7976877B2, “Use of knotwood extracts” (Oy Arbonova Ab, priority 2003, dated 2011).

What was measured:
Type in all cases: biochemical
[1] = Scavenging of superoxide radicals in vitro (xanthine-xanthine oxidase system, lucigenin chemiluminescence)
Experimental: (§1) Estimation of free radical trapping capacity. The capacity of the extracts, fractions thereof and the pure compounds to trap superoxide (oxygen radical) and peroxyl radicals was estimated by chemiluminescence-based methodology (17). Superoxide anions were produced by xanthine-xanthine oxidase system as follows. 20 μL of xanthine oxidase (420 mU/mL), 0.02 mL of 5 mM lucigenin, 0.02 mL of 200 mM linoleic acid dissolved in 50 mM KOH, 0.78 mL of 50 mM potassium phosphate buffer, pH 10.0, and test samples were pipetted in cuvettes. The reaction was initiated by the automated dispensing of 0.11 mL of 1.45 mM xanthine (final volume 1.0 mL). Chemiluminescence in duplicate samples at 35° C. was measured for 6 min in 1-min cycles. Peroxyl radicals were generated by thermal decomposition of 2,2′-azobis(2-amidinopropane)-hydrochloride as follows. 0.45 mL of 0.1 M sodium phosphate buffer, pH 7.4, containing 0.9% NaCl, 0.02 mL of 120 mM linoleic acid, 0.05 mL of luminol (0.5 mg/mL) and test compounds were mixed in the cuvette. The assay was initiated by 0.05 mL of ABAP (83 mg/mL). Chemiluminescence in triplicate cuvettes at 37° C. was measured until a peak value for each sample was detected. The half-peak time point defined the peroxyl radical trapping capacity.

[2] = test system: t-butylhydroperoxide (t-BuOOH) induced lipid peroxidation in rat liver microsomes; test: Inhibition of t-BuOOH induced lipid peroxidation in rat liver microsomes in vitro (luminol-enhanced chemiluminescence)
From the text: Estimation of inhibition of lipid peroxidation. The antioxidant properties of the extracts, fractions thereof and the pure compounds were estimated by their potency to inhibit t-butylhydroperoxide (t-BuOOH) induced lipid peroxidation in rat liver microsomes in vitro (17) and by their capacity to trap superoxide (oxygen radical) and peroxyl radicals, estimated by chemiluminescence-based methodology (17). The lipid peroxidation was detected by luminol-enhanced chemiluminescence. Test compounds or extracts were added to incubation mixtures in a small volume (2% of incubation volume), and the lipid peroxidation potency was compared to that of the vehicle (ethanol). Assays for the t-BuOOH-initiated lipid peroxidation was performed as follows. The buffer (50 mM sodium carbonate, pH 10.2, with 0.1 mM EDTA) was pipetted in a volume of 0.8 mL in the luminometer cuvette. 20 μL of diluted rat liver microsomes (final concentration 1.5 μg protein/mL) was added, followed by 6 μL of luminol (0.5 mg/mL) and test chemicals. The reaction was initiated by 0.05 mL of 0.9 mM t-BuOOH at 33° C. The chemiluminescence was measured for 45 min at 1 min cycles. The tests were repeated two to four times on separate days. Variation between assays were <10%.

[3] = Scavenging of peroxyl radicals in vitro (thermal decomposition of ABAP, luminol chemiluminescence); details: for Stoichiometric factor (peroxyl radicals), range over the two test series: Series 1 and 2 together
Experimental: as §1

[4] = knotwood extracts, fractions and reference compounds
[5] = Series 1, pure compounds, rat liver microsomes
[6] = knotwood extracts, fractions and reference compounds, rat liver microsomes
[7] = Series 2, pure compounds, different batch of rat liver microsomes

IC50 ([1]; Series 1, pure compounds) [nM]	IC50 [2, 5] [nM]	Scavenging of superoxide radicals in vitro, IC50 ([1]; Series 1, pure compounds) [µg/mL]	Inhibition of lipid peroxidation in vitro, IC50 [2, 5] [µg/mL]	IC50 [2, 7] [nM]	Inhibition of lipid peroxidation in vitro, IC50 [2, 7] [µg/mL]	Structure (SMILES)	Scavenging of superoxide radicals in vitro, IC50 [1, 4] [µg/mL]	Inhibition of lipid peroxidation in vitro, IC50 [2, 6] [µg/mL]	Stoichiometric factor (peroxyl radicals scavenged per mole of compound) ([3]; Series 1, pure compounds) [mole/mole]	Trapping capacity (peroxyl radicals scavenged per gram) ([3]; Series 1, pure compounds) [mmol/g]	Stoichiometric factor (peroxyl radicals scavenged per mole of compound) ([3]; Series 2, pure compounds) [mole/mole]	Trapping capacity (peroxyl radicals scavenged per gram) ([3]; Series 2, pure compounds) [mmol/g]	Scavenging of superoxide radicals in vitro, IC50 ([1]; Series 1, pure compounds, listed as nortrachelogenin)	Scavenging of superoxide radicals in vitro, IC50 ([1]; Series 1, pure compounds, listed as secoisolariciresinol)	Stoichiometric factor (peroxyl radicals), range over the two test series [3]	Trapping capacity (peroxyl radicals scavenged per gram) ([3]; knotwood extracts, fractions and reference compound) [mmol/g]
4.8	100	0.0018	0.037	150	0.054	COc1cc(C[C@@H](CO)[C@H](CO)Cc2ccc(O)c(OC)c2)ccc1O [Secoisolariciresinol]			3.1	8.5	4.0	11		more effective scavengers than both BHA and Trolox	3.1-4.0 mole/mole	
25	20			180	0.046	Cc1c(C)c2c(c(C)c1O)CCC(C)(C(=O)O)O2 (centres unmarked) [Trolox, 6-hydroxy-2,5,7,8-tetramethylchroman-2-carboxylic acid, reference compound]	0.0063	0.005	2.0	8.0	1.7	6.8			1.7-2.0 mole/mole	8.0

Second part, the compound before the results:

Structure (SMILES)	IC50 ([1]; Series 1, pure compounds) [nM]	IC50 [2, 5] [nM]	Scavenging of superoxide radicals in vitro, IC50 ([1]; Series 1, pure compounds) [µg/mL]	Inhibition of lipid peroxidation in vitro, IC50 [2, 5] [µg/mL]	IC50 [2, 7] [nM]	Inhibition of lipid peroxidation in vitro, IC50 [2, 7] [µg/mL]	Scavenging of superoxide radicals in vitro, IC50 [1, 4] [µg/mL]	Inhibition of lipid peroxidation in vitro, IC50 [2, 6] [µg/mL]	Stoichiometric factor (peroxyl radicals scavenged per mole of compound) ([3]; Series 1, pure compounds) [mole/mole]	Trapping capacity (peroxyl radicals scavenged per gram) ([3]; Series 1, pure compounds) [mmol/g]	Stoichiometric factor (peroxyl radicals scavenged per mole of compound) ([3]; Series 2, pure compounds) [mole/mole]	Trapping capacity (peroxyl radicals scavenged per gram) ([3]; Series 2, pure compounds) [mmol/g]	Scavenging of superoxide radicals in vitro, IC50 ([1]; Series 1, pure compounds, listed as nortrachelogenin)	Scavenging of superoxide radicals in vitro, IC50 ([1]; Series 1, pure compounds, listed as secoisolariciresinol)	Stoichiometric factor (peroxyl radicals), range over the two test series [3]	Trapping capacity (peroxyl radicals scavenged per gram) ([3]; knotwood extracts, fractions and reference compound) [mmol/g]
COc1ccc(O)c(C(C)(C)C)c1 [BHA, butylated hydroxyanisole, reference compound]	15	1100					0.0027	0.198								
COc1cc(C[C@H]2C(=O)OC[C@@H]2[C@H](O)c2ccc(O)c(OC)c2)ccc1O [Hydroxymatairesinol]	217	150	0.081	0.058	180	0.067			2.1	5.6	2.7	7.3				
COc1cc(C[C@H]2CO[C@H](c3ccc(O)c(OC)c3)[C@H]2CO)ccc1O [Lariciresinol]	35	350	0.013	0.126	170	0.063			1.0	2.7	2.6	7.3				
COc1cc(C[C@H]2COC(=O)[C@@H]2Cc2ccc(O)c(OC)c2)ccc1O [Matairesinol]	40	280	0.014	0.099					1.0	2.9						
COc1cc(CC2COC(=O)C2(O)Cc2ccc(O)c(OC)c2)ccc1O (centres unmarked) [Nortrachelogenin]	1.4	140	0.00053	0.053	190	0.07			2.2	5.9	2.0	5.3	more effective scavengers than both BHA and Trolox			
